Here are results for 19 compounds from PubChem BioAssay AID330 (DTP/NCI, 2004).

For the assay, the system named is P388 leukemia ip, CD2F1 mice, survival T/C. The experiment in a line: NCI In Vivo Anticancer Drug Screen. Data for tumor model P388 Leukemia (intraperitoneal) in CD2F1 (CDF1) mice. The settings on record: endpoint: median survival time, higher = longer survival. In outline: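 Mice carrying the transplanted tumor received test compound or vehicle. Survival was recorded in each group, and the value is the treated-group measurement divided by that of the vehicle-treated control group.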

The mark [1] stands for this setting: dose: 25.0 mg/kg/injection, schedule: Q01DX009 (ip), vehicle: saline with Tween-80.
Where [2] appears, read: dose: 50.0 mg/kg/injection, schedule: Q01DX009 (ip), vehicle: saline with Tween-80.
Setting [3] is: dose: 100.0 mg/kg/injection, schedule: Q01DX009 (ip), vehicle: saline with Tween-80.
[4] abbreviates: dose: 50.0 mg/kg/injection, schedule: Q01DX005 (ip), vehicle: saline with Tween-80.
The mark [5] stands for this setting: dose: 100.0 mg/kg/injection, schedule: Q01DX005 (ip), vehicle: saline with Tween-80.
[6] abbreviates: dose: 200.0 mg/kg/injection, schedule: Q01DX005 (ip), vehicle: saline with Tween-80.
Where [7] appears, read: dose: 50.0 mg/kg/injection, schedule: Q01DX005 (ip), vehicle: Klucel (hydroxypropylcellulose) (HPC).
[8] abbreviates: dose: 100.0 mg/kg/injection, schedule: Q01DX005 (ip), vehicle: Klucel (hydroxypropylcellulose) (HPC).
[9] abbreviates: dose: 200.0 mg/kg/injection, schedule: Q01DX005 (ip), vehicle: Klucel (hydroxypropylcellulose) (HPC).
Setting [10] is: dose: 6.25 mg/kg/injection, schedule: Q01DX009 (ip), vehicle: saline with Tween-80.
Setting [11] is: dose: 30.0 mg/kg/injection, schedule: Q01DX005 (ip), vehicle: saline with Tween-80.
Setting [12] is: dose: 60.0 mg/kg/injection, schedule: Q01DX005 (ip), vehicle: Klucel (hydroxypropylcellulose) (HPC).
[13] abbreviates: dose: 60.0 mg/kg/injection, schedule: Q01DX005 (ip), vehicle: saline with Tween-80.
Setting [14] is: dose: 3.12 mg/kg/injection, schedule: Q01DX009 (ip), vehicle: saline.
Setting [15] is: dose: 6.25 mg/kg/injection, schedule: Q01DX009 (ip), vehicle: saline.
[16] abbreviates: dose: 200.0 mg/kg/injection, schedule: Q01DX009 (ip), vehicle: saline with Tween-80.

Molecules are shown by their SMILES. Several values for one entry are separate records, joined by “and”; a condition that tells them apart may be missing. Equal entries are not always repeated. Toxic doses and inconclusive results are not listed.

For the compound `COC1(OC)/C(=N/NS(=O)(=O)c2ccc(C)cc2)C2CC1C1CC21` (stereo unspecified), the T/C is 98 % of control under setting [1], 96 % of control under setting [2] and 96 % of control under setting [3].

For `COC(=O)N1C=CC2ON=C(OC)C2C1c1ccccc1` (stereo unspecified), the T/C runs as follows: under setting [4], 98 % of control; under setting [5], 98 % of control; under setting [6], 101 % of control.

Take `COC(=O)c1c(C)cc(OC(=O)c2c(C)cc(O)c(C=O)c2O)c(C)c1O`: the T/C is 104 % of control (dose: 0.25 mg/kg/injection, schedule: Q01DX009 (ip), vehicle: saline with Tween-80); 92 % of control (dose: 0.5 mg/kg/injection, schedule: Q01DX009 (ip), vehicle: saline with Tween-80); 104 % of control (dose: 1.0 mg/kg/injection, schedule: Q01DX009 (ip), vehicle: saline with Tween-80); 95 % of control (dose: 50.0 mg/kg/injection, schedule: Q01DX009 (ip), vehicle: saline); 90 % of control (dose: 100.0 mg/kg/injection, schedule: Q01DX009 (ip), vehicle: saline); 95 % of control (dose: 200.0 mg/kg/injection, schedule: Q01DX009 (ip), vehicle: saline).

For the compound `COC(=O)CC1C(C)=CCC2C(=O)C=C(OC)C(=O)C21C` (stereo unspecified), the T/C runs as follows: under setting [7], 101 % of control; under setting [8], 101 % of control; under setting [9], 100 % of control.

With `COC(=O)C1O[C@H]1c1cccc[n+]1[O-]` (mixture of isomers), the T/C runs as follows: (dose: 25.0 mg/kg/injection, schedule: Q01DX005 (ip), vehicle: water) 102 % of control; (dose: 50.0 mg/kg/injection, schedule: Q01DX005 (ip), vehicle: water) 101 % of control; (dose: 100.0 mg/kg/injection, schedule: Q01DX005 (ip), vehicle: water) 101 % of control; (dose: 200.0 mg/kg/injection, schedule: Q01DX005 (ip), vehicle: water) 103 % of control.

For `O=S(CCCl)CCCl`, the T/C is 117 % of control (dose: 6.25 mg/kg/injection, schedule: Q01DX001 (ip), vehicle: saline) and 152 % of control (dose: 12.5 mg/kg/injection, schedule: Q01DX001 (ip), vehicle: saline).

As to `O=C1c2c(Cl)c(Cl)c(Cl)c(Cl)c2C(=O)N1O`, the T/C is, setting by setting: under setting [10], 100 % of control; (dose: 12.5 mg/kg/injection, schedule: Q01DX009 (ip), vehicle: saline with Tween-80) 100 % of control; under setting [1], 104 % of control.

Regarding `CNc1ccc(Nc2c3ccccc3nc3ccccc23)cc1`, the T/C (dose: 6.25 mg/kg/injection, schedule: Q04DX002 (ip), vehicle: distilled water + Tween-80) is 109 % of control; the T/C (dose: 12.5 mg/kg/injection, schedule: Q04DX002 (ip), vehicle: distilled water + Tween-80) was 120 % of control and 124 % of control; the T/C (dose: 25.0 mg/kg/injection, schedule: Q04DX002 (ip), vehicle: distilled water + Tween-80) was 118 % of control; the T/C (dose: 50.0 mg/kg/injection, schedule: Q04DX002 (ip), vehicle: distilled water + Tween-80) was 160 % of control; the T/C (dose: 100.0 mg/kg/injection, schedule: Q04DX002 (ip), vehicle: distilled water + Tween-80) was 194 % of control and 232 % of control.

On to `CCOC(=O)N/N=C(\C)c1nc2ccccc2[nH]1`, for which the T/C by setting is: (dose: 15.0 mg/kg/injection, schedule: Q01DX005 (ip), vehicle: saline with Tween-80) 106 % of control; under setting [11], 108 % of control; under setting [12], 100 % of control; under setting [13], 101 % of control.

For `NCCN.O=S(=O)([O-])[O-].[Cu+2].[OH3+].[OH3+]`, the T/C reads like this: (dose: 6.25 mg/kg/injection, schedule: Q04DX002 (ip), vehicle: saline) 100 % of control; (dose: 12.5 mg/kg/injection, schedule: Q04DX002 (ip), vehicle: saline) 100 % of control; (dose: 25.0 mg/kg/injection, schedule: Q04DX002 (ip), vehicle: saline) 100 % of control.

As to `Nc1nc(-c2ccccc2)nc(-c2ccccc2)n1`, the T/C by setting is: (dose: 2.5 mg/kg/injection, schedule: Q01DX009 (ip), vehicle: saline) 104 % of control; under setting [14], 95 % of control; (dose: 3.12 mg/kg/injection, schedule: Q01DX009 (ip), vehicle: suspension in saline) 100 % of control and 97 % of control; (dose: 5.0 mg/kg/injection, schedule: Q01DX009 (ip), vehicle: saline) 104 % of control; under setting [15], 92 % of control; (dose: 10.0 mg/kg/injection, schedule: Q01DX009 (ip), vehicle: saline) 100 % of control. Further, the T/C (dose: 12.5 mg/kg/injection, schedule: Q01DX009 (ip), vehicle: saline) was 89 % of control; the T/C (dose: 12.5 mg/kg/injection, schedule: Q01DX009 (ip), vehicle: suspension in saline) was 93 % of control and 98 % of control; the T/C (dose: 20.0 mg/kg/injection, schedule: Q01DX009 (ip), vehicle: saline) is 100 % of control; the T/C (dose: 25.0 mg/kg/injection, schedule: Q01DX009 (ip), vehicle: suspension in saline) was 90 % of control and 98 % of control.

Consider `O=C(CC(=NCCCN=C(CC(=O)c1ccccc1)c1ccccc1)c1ccccc1)c1ccccc1`, for which the T/C reads like this: under setting [2], 96 % of control; under setting [3], 100 % of control; under setting [16], 100 % of control.

For the compound `CCOc1ccc(/C=N/NC(=S)NC23CC4CC(CC(C4)C2)C3)cc1OCC`, the T/C was 108 % of control under setting [11]; 102 % of control and 86 % of control under setting [13]; 90 % of control (dose: 120.0 mg/kg/injection, schedule: Q01DX005 (ip), vehicle: saline with Tween-80).

Take `Clc1ccc2c(NCCN3CCCCCC3)nc(C(Cl)(Cl)Cl)nc2c1`: the T/C runs as follows: under setting [2], 100 % of control; under setting [3], 104 % of control; under setting [16], 100 % of control.

As to `CCCCCn1cnc2c(=S)nc[nH]c21`, the T/C runs as follows: (dose: 100.0 mg/kg/injection, schedule: Q04DX003 (ip), vehicle: saline with Tween-80) 104 % of control; (dose: 200.0 mg/kg/injection, schedule: Q04DX003 (ip), vehicle: saline with Tween-80) 100 % of control; (dose: 400.0 mg/kg/injection, schedule: Q04DX003 (ip), vehicle: saline with Tween-80) 90 % of control.

As to `O=C1CSC(c2ccsc2)N1c1nncs1` (stereo unspecified), the T/C is 101 % of control under setting [12]; 100 % of control (dose: 120.0 mg/kg/injection, schedule: Q01DX005 (ip), vehicle: Klucel (hydroxypropylcellulose) (HPC)); 108 % of control (dose: 240.0 mg/kg/injection, schedule: Q01DX005 (ip), vehicle: Klucel (hydroxypropylcellulose) (HPC)).

Regarding `CCC[CH2][Sn]1([CH2]CCC)[O]C(=O)CSC(=S)SCC(=O)[O]1`, the T/C runs as follows: (dose: 1.56 mg/kg/injection, schedule: Q01DX009 (ip), vehicle: saline) 90 % of control; under setting [14], 92 % of control; under setting [10], 116 % of control; under setting [15], 89 % of control.

As for `Cn1c(-c2ccc3c(c2)OCO3)nn(CN2CCOCC2)c1=S`, the T/C under setting [7] is 97 % of control, the T/C under setting [8] is 100 % of control and the T/C under setting [9] is 107 % of control.

As to `N#CC(c1c(Cl)cccc1N1CCCCC1)N1CCCCC1` (stereo unspecified), the T/C under setting [4] was 108 % of control, the T/C under setting [5] is 104 % of control and the T/C under setting [6] was 100 % of control.
